Experimental data: a melting point compilation (Tetko et al.; mined from patent text by program, amines drawn as free bases though some values may be those of a salt)

First: CCOc1nn2c(-c3ccccc3Br)nnc2c2ccccc12
Second: Cc1c2ccccc2c2c3c(cccc13)C(=O)OC2=O
The melting point of the first is lower: 157 to 158 °C for the first, 275 to 280 °C for the second.

Compared with `COc1ccc(C(=O)Cc2c(Cl)cncc2Cl)c2c1OCC2C` (stereo unspecified), `CCn1ncc(C(=O)c2ccc(Cl)cc2Cl)c1O` is higher in melting point: 99 to 104 °C for the first, 144 to 146 °C for the second.

First: CSc1nc(O)nn1-c1ccccc1
Second: N#Cc1cnc(N)nc1-c1ccccc1
The melting point of the first is higher: 176 to 177 °C for the first, 147 °C for the second.

First: NCCCCn1cnc(-c2ccc(F)cc2)c1
Second: O=C(O)c1cc(-n2c(-c3ccc(F)cc3)cc3c2CCCC3)ccc1O
The melting point of the first is lower: 138 to 140 °C for the first, 239 to 240 °C for the second.

Compared with `CC(=O)OCCc1c([N+](=O)[O-])cc(OCc2ccccc2)c2ccccc12`, `CCOC(=O)Cc1cccc(OCc2ccc3oc([N+](=O)[O-])c(-c4ccccc4)c3c2)c1` is lower in melting point: 82 to 87 °C for the first, 67 to 68 °C for the second.

First: C#CCOc1cc(-n2nc(C)ccc2=O)c(F)cc1C#N
Second: CCn1cc(C2CCC(=O)CC2)c2cc(C#N)ccc21
The melting point of the first is higher: 180 °C for the first, 124 °C for the second.

First: O=C(NC1CC1)c1cccc2c1CC(NC1CC1)CO2 (stereo unspecified)
Second: CS(=O)(=O)Nc1cccc2c1CCC[C@H]2c1c[nH]cn1
The melting point of the first is higher: 126 to 127 °C for the first, 118 to 123 °C for the second.

First: O=S(=O)(CCc1ccc(O)cc1)CC1CCC1
Second: O=[N+]([O-])c1ccc(CCN2CCC(N3CCc4ccccc43)CC2)cc1
The melting point of the first is higher: 112 °C for the first, 95 to 97 °C for the second.

Compared with `CCCn1cc(C2CCC(=O)CC2)c2cc(C#N)ccc21`, `CC(=O)Oc1cc(C)ccc1C1CCN(CCCCNC(=O)c2ccc(-c3ccc(C#N)cc3)cc2)CC1` is higher in melting point: 103 to 104 °C for the first, 128 to 130 °C for the second.

First: CC(C)(C)O[C@@H]1C[C@@H](COCc2ccccc2)N(S(=O)(=O)c2ccc3ccccc3c2)C1
Second: O=C1CN(c2ccc(Cc3ccccc3)cc2)C(=S)N1Cc1ccccc1
The melting point of the first is lower: 101 to 103 °C for the first, 107 °C for the second.

First: COc1ccc(-c2c(OCCN3CCOCC3)c3ccccc3oc2=O)cc1
Second: C=CCOC(=O)NC(C)(C)c1ccc(-c2nc(Nc3ccc(CCN4CCOCC4)cc3)ncc2Cl)cc1
The melting point of the first is higher: 104 °C for the first, 65 to 69 °C for the second.

First: COc1ccc(O)c(Cl)c1O
Second: COc1nn(-c2ccc(C=O)c(Cl)c2)nc1Cl
The melting point of the first is lower: 69 to 70 °C for the first, 85 to 87 °C for the second.

First: CC(C)(C)OC(=O)CN1CC(c2ccccc2)CCC(N=[N+]=[N-])C1=O (stereo unspecified)
Second: CC(C)(C)C(=N)Nc1ccccc1N1CCOCC1
The melting point of the first is lower: 119 to 121 °C for the first, 126 °C for the second.

First: CC(=O)c1cnc2c(cnn2Cc2ccco2)c1O
Second: OCc1ccc(-c2nn(Cc3ccccc3)c3ncncc23)o1
The melting point of the first is lower: 108 to 110 °C for the first, 165 °C for the second.

Compared with `C[C@H](c1ncnc(Sc2ccc(Cl)cc2)c1F)[C@@](O)(Cn1cncn1)c1ccc(F)cc1F`, `O=c1c2cc(Br)ccc2nc(C(S)c2ncnc3[nH]cnc23)n1-c1ccccc1Cl` (stereo unspecified) is higher in melting point: 158 to 160 °C for the first, 212 to 242 °C for the second.

First: N#CC1CC(c2c(F)cccc2F)=NC1c1ccc(-c2ccc(OC(F)(F)F)cc2)cc1 (stereo unspecified)
Second: CCC(C)c1ccccc1N1C(=O)CS/C1=N\C(=O)Nc1ccc(-c2ncn(-c3ccc(OC(F)(F)F)cc3)n2)cc1 (stereo unspecified)
The melting point of the first is lower: 145 °C for the first, 169 to 177 °C for the second.

First: CC1(C)N(CC(N)=O)C(=O)CN1C(=O)CN1CCCC1=O
Second: CON1C(=O)CC2(CCN(C(=O)C3=CN(C)C=CC3)CC2)C1=O
The melting point of the first is higher: 225 to 227 °C for the first, 46 to 62 °C for the second.

`N#Cc1c(N2CCc3ccccc3CC2)nc(CC(N)=O)[nH]c1=O` and `N#Cc1ccc(N2C[C@@H]3[C@H](O)CCN3C2=O)c2ccccc12` cannot be ordered by melting point: > 200 °C for the first, 226 to 228 °C for the second.

First: CN(C)c1nn(C(=O)NC(C)(C)CF)c(=O)n1NCc1cccc(Cl)c1
Second: O=C1CC(Cc2cccc(Cl)c2)CN1 (stereo unspecified)
The melting point of the first is higher: 158 °C for the first, 117 to 119 °C for the second.

First: CC(=NNc1ccccc1)c1ccc(N2CCN(c3c(C)nc(N)nc3N)CC2)cc1
Second: COc1ccc(C(=O)Nc2ccc3ccc(OC)nc3n2)cc1
The melting point of the first is higher: 239 to 241 °C for the first, 115 °C for the second.

First: COC(=O)c1cccc(F)c1C=NC(C)(C(N)=O)C(C)C (stereo unspecified)
Second: CC(C)(C)OC(=O)Nc1c(F)cccc1[N+](=O)[O-]
The melting point of the first is higher: 125 to 131 °C for the first, 100 to 101 °C for the second.

First: Cc1ccc(NS(=O)(=O)c2ccccc2)c(C(=O)O)c1
Second: COc1cc(C)ccc1-c1cc2ccccc2[nH]1
The melting point of the first is higher: 197 to 198 °C for the first, 125 °C for the second.

Compared with `O=c1nc(-c2ccccn2)sc2ccc(OCCCCCCO)cc12`, `C(=C\c1nc(COc2ccc(CCCCCn3cncn3)cc2)co1)/c1ccccc1` is lower in melting point: 136 to 137 °C for the first, 103 to 104 °C for the second.

First: CCC1(CO)COC2(CC(c3ccc(Cl)cc3)SC(c3ccc(Cl)cc3)C2)OC1 (stereo unspecified)
Second: O=C(O)C1=Cc2cc(Cl)ccc2N(Cc2ccc([N+](=O)[O-])cc2)C1C(F)(F)F (stereo unspecified)
The melting point of the first is lower: 138 °C for the first, 225 to 228 °C for the second.

First: COc1ccc(-c2ccnc3c(C(=O)c4cccs4)cnn23)cc1NC(=O)OC(C)C
Second: CNC(=O)c1cccc(NC(=O)COc2ccccc2OC)c1
The melting point of the first is higher: 193 to 195 °C for the first, 133 °C for the second.

Compared with `CC(=O)c1cccc2c1C1(COc3cc4c(cc31)OCCO4)C(=O)N2C` (stereo unspecified), `CC1(Cc2ccc3c(c2)OCCO3)CN(C(c2ccccc2)c2ccccc2)CCN1` (stereo unspecified) is lower in melting point: 234 to 235 °C for the first, 144 °C for the second.

First: CC(C)(C)CC(C)(C)c1cc(N=Nc2cc(C#N)ccc2Cl)c(O)c(C(C)(C)c2ccccc2)c1
Second: CC(C)(O)c1onc(-c2ccccc2Cl)c1C(=O)c1nnn(Cc2cc(F)cc(C(F)(F)F)c2)c1-c1cccnc1
The melting point of the first is higher: 190 to 191 °C for the first, 180 °C for the second.

First: c1cc2c(ccc3[nH]c4c(c32)CNCC4)s1
Second: Cc1c(C(=O)O)sc2ccc(Br)cc12
The melting point of the first is lower: 190 °C for the first, > 300 °C for the second.

First: CNc1cc(Oc2ccc3c(C(=O)O)cccc3c2)ncn1
Second: Cc1oc(-c2ccc(OCC(F)(F)F)cc2)nc1COc1ccc(CN(O)C(N)=O)cc1
The melting point of the first is higher: 267 to 268 °C for the first, 159 to 161 °C for the second.

Compared with `O=C1c2c(c(=O)n3nc(-c4ccccc4)cc3n2Cc2ccccc2)CCN1C1CCCCC1`, `FC(F)(F)c1ccc2sc(C3=CCN(Cc4ccccc4)CC3)nc2c1` is lower in melting point: 247 to 248 °C for the first, 124 to 125 °C for the second.

First: S=C1N=c2cc(Cl)c(Cl)cc2=N1
Second: Cn1c(=O)n(-c2cc(N)c(Cl)cc2F)c(=S)n1C
The melting point of the first is higher: 328 to 330 °C for the first, 208 °C for the second.

Compared with `CCCCn1c(=O)c(NC(=O)Nc2c(C(C)C)cccc2C(C)C)c(-c2cccc(CCCO)c2)c2cccnc21`, `Cc1c(NC(=O)CC(C)(C)C)c(C)c2c(c1-c1ccco1)OC[C@@H]2c1ccc(C(C)C)cc1` is higher in melting point: 188 to 189 °C for the first, 214 to 217 °C for the second.

First: CN(C)C(CNc1c(C#N)cnn2cccc12)c1ccco1 (stereo unspecified)
Second: CCCNC(=O)N=c1ccn(-c2ccccc2)nc1
The melting point of the first is lower: 107 °C for the first, 156 to 157 °C for the second.

First: COc1cccc(NC(=O)N(C)Cc2cccc3c2CN(C2CCC(=O)NC2=O)C3=O)c1 (stereo unspecified)
Second: CN1C(=O)c2cccc3c(S(C)(=O)=O)ccc1c23
The melting point of the first is higher: 296 to 298 °C for the first, 216 to 218 °C for the second.

Compared with `CC(C)(C)NCC(O)COc1ccccc1-c1ccc(Cl)nn1` (stereo unspecified), `NS(=O)(=O)c1ccccc1OCCCl` is higher in melting point: 93 to 94 °C for the first, 110 °C for the second.

First: O=CC1CCN1C(c1ccccc1)c1ccccc1 (stereo unspecified)
Second: O=[PH](O)Cc1cccc(P(c2ccccc2)c2ccccc2)c1
The melting point of the first is lower: 85 to 86 °C for the first, 173 °C for the second.

First: Cn1ccnc1-c1ccc(-c2cnc([C@H](Cc3ccccn3)N(C=O)c3cc4ccccc4[nH]3)n2C)cc1
Second: CCn1c2ccc(C=O)cc2c2ccc3ccccc3c21
The melting point of the first is higher: 218 to 222 °C for the first, 135 to 140 °C for the second.

First: OCCN1C2C=C(c3ccc4ccccc4c3)CC1CC2 (stereo unspecified)
Second: O=C(N1C=CC2=C(CCC=C2)c2ccccc21)n1ccnc1
The melting point of the first is lower: 113 to 114 °C for the first, 189 to 190 °C for the second.

First: Cn1c(CCNC(=O)C(F)(F)F)cc2cccc(F)c21
Second: COc1ccccc1C(=O)Nc1ccc(-n2nc(C(F)(F)F)cc2C(F)(F)F)cc1
The melting point of the first is higher: 108 to 110 °C for the first, 100 to 102 °C for the second.

Compared with `CCOC(=O)c1c(C)c[nH]c1C`, `CCCCOc1csc(C)c1C(=O)O` is lower in melting point: 74 to 76 °C for the first, 66 to 68 °C for the second.

First: CNc1cc(NC)nc(NS(=O)(=O)c2ccc(N)cc2)n1
Second: CCCc1nc2c(N)nc(C)c(C)c2n1CCCCCS(=O)(=O)c1ccc(C(F)(F)F)cc1
The melting point of the first is higher: 262 to 263 °C for the first, 172 to 174 °C for the second.

Compared with `O=c1[nH]ncc2[nH]c(-c3ccc(OC(F)F)c(OC4CC4)c3)c(Cc3ccc(F)cc3)c12`, `O=C(NC1CCCCC1)c1ccc(CCN2CC=C(c3c[nH]c(-c4ccc(F)cc4)c3-c3ccncc3)CC2)cc1` is higher in melting point: 193 to 195 °C for the first, 243 to 245 °C for the second.

First: O=C(NCC12CC3CC(CC(C3)C1)C2)c1c(Cl)ccc2nc(N3CCC(O)(C(=O)O)CC3)ccc12
Second: CC(=O)c1ccc(N2CCN(C(=O)c3c(Cl)ccc([N+](=O)[O-])c3Cl)CC2)c(F)c1
The melting point of the first is lower: 200 to 204 °C for the first, 209 to 211 °C for the second.

`CCCCCCCCCCCCCCCCCCOCC(COC1CCCCO1)NC(C)=O` (stereo unspecified) and `CCCCCCCCN1CCN(O)C1=O` cannot be ordered by melting point: 52 to 55 °C for the first, 53.5 to 55.5 °C for the second.

Compared with `COc1ccc(S(=O)(=O)Cl)cc1N1CCN(C(=O)C(F)(F)F)CC1`, `CC(C)(C)OC(=O)N1CCN(c2nsnc2Cl)CC1` is lower in melting point: 125 to 127 °C for the first, 83 to 86 °C for the second.

Compared with `Cc1cc2c(cc1Cl)C(c1ccccc1)(N1CCOCC1)ON2C(C)(C)C` (stereo unspecified), `Cc1c(Cl)c(=O)n(-c2cc(C(=O)OC(C)C)c(Cl)cc2F)c(=O)n1C` is higher in melting point: 131 to 133 °C for the first, 150 to 153 °C for the second.

First: CCCCn1c(=O)[nH]c2c(Cl)cc(OC)c(OC)c2c1=N
Second: CCCc1c(OCCCSc2nnc(NC(=O)CC(=O)O)s2)ccc(C(C)=O)c1O
The melting point of the first is lower: 155 to 157 °C for the first, 172 to 174 °C for the second.

First: CN(C)C1CC2(C)C(=O)CCC2C2CCC3CC(O)CCC3(C)C21 (stereo unspecified)
Second: COCCCN(c1nc(Cl)nc(N(CCCOC)C2CC(C)(C)NC(C)(C)C2)n1)C1CC(C)(C)NC(C)(C)C1
The melting point of the first is lower: 135 to 136 °C for the first, 160 to 161 °C for the second.

Compared with `C#CCCCCCCCCC(c1ccc(Cl)cc1)C1(S(=O)(=O)c2ccc(OC)cc2)SC(=O)NC1=O` (stereo unspecified), `CN(C)CCCNc1ccc([N+](=O)[O-])cc1` is lower in melting point: 114 to 121 °C for the first, 60 to 61.5 °C for the second.

Compared with `CCOC(=O)C1=C(NC(=O)Nc2cc(C(=O)OC(C)C)c(F)cc2F)CCC1`, `CC(C)(C)c1cc(C(=O)c2cc[nH]n2)cc(C(C)(C)C)c1O` is higher in melting point: 149 to 151 °C for the first, 216 to 219 °C for the second.

`CN(C(=O)Cl)c1ccc(C(O)(C(F)(F)F)C(F)(F)F)cc1` showed a melting point of 152 to 154 °C.
